Earlier results on twelve compounds are cited in patent US10934504B2, “Laundry treatment compositions comprising perfume and silica microparticles” (Conopco, Inc., priority 2016, dated 2021).

The conditions of this series: values taken from the Good Scents website.

Turning to `CCCCCCOC(=O)c1ccccc1O` [n-Hexyl salicylate], the logKow is given as 5.7.

Take `CC(C=O)Cc1ccc(C(C)(C)C)cc1` (stereo not drawn) [Lilial]: the logKow is 3.6.

`C=C(C)[C@H]1CC=C(C)CC1` [Limonene]: the logKow is 3.4.

As to `CC(=O)OC(C)(C)Cc1ccccc1` [Dimethyl benzyl carbinyl acetate], the logKow is on record as 2.7.

As for `CC(=O)/C=C/C1=C(C)CCCC1(C)C` [β-Ionone], the logKow is 2.9.

For the compound `CC(=O)OCc1ccccc1` [Benzyl acetate], the logKow is given as 2.0.

`CC(=O)OC1CC2CC1C1CC=CC21` (stereo not drawn) [Verdyl acetate]: the logKow is 2.2.

With `CCCCCCCCCC(C)C=O` (stereo not drawn) [C12 Aldehyde MNA], the logKow is 4.9.

On to `C=CC(C)CCCC(C)(C)O` (stereo not drawn) [Dihydromyrcenol], for which the logKow is recorded as 2.9.

Turning to `CC(=O)c1cc2c(cc1C)C(C)(C)C(C)CC2(C)C` (stereo not drawn) [Tonalid], the logKow is on record as 4.8.

In the case of `CCCC(C)C(=O)OCC` (stereo not drawn) [Manzanate], the logKow is listed as 2.4.

Take `c1ccc(CCOC2CCCCC2)cc1` [Phenafleur]: the logKow was 3.8.
